Experiments:
[1] = tested on: HPE cells; assay: 2D difference gel electrophoresis (DIGE) of hormone-treated HPE cells; format: cell-based, human; conditions: 10^−8 M DHT or 10^−5 M flutamide vs (−) hormone
Description: FIGS. 9A-B. Identification of androgen- and flutamide-regulated proteins by 2D difference gel electrophoresis. […] Whole cell proteins were extracted, labeled with the dyes Cy2 (ex 480, em 530), Cy3 (ex 540, em 590), and Cy5 (ex 620, em 680) respectively. The labeled proteins were mixed together and subjected to a pH gradient of pH 4 to pH 7 in the first dimension and separated by PAGE in the second dimension. […] The proteins were excised, subjected to in-gel tryptic digestion and analyzed by MS. The tryptic peptides were identified by searching the protein data bases such as the NCBInr and SWISS- PROT databases. EST databases were also searched with fragmentation data from tandem mass spectrometry when necessary.
Identification of antiandrogen-regulated genes. […] In this study, 8 proteins were identified by tryptic mapping and the sequences verified by partial amino acid sequencing of individual tryptic peptides (FIG. 9B). […] Of particular interest were calreticulin, DJ-1 and non-selenium glutathione peroxidase. Calreticulin binds to the AR DNA binding domain to block AR-activated transcription. Therefore, down-regulation of calreticulin expression would typically facilitate AR binding to the AR binding site to transactivate gene expression (Dedhar et al., 1994). Calreticulin also interacts with integrins during cell attachment and spreading (Coppolino and Dedhar, 1999) and a loss or decrease in calreticulin could potentially increase cell motility and increase HPE cell metastatic potential. The RNA binding protein regulatory subunit DJ-1 has oncogenic potential, transforming NIH3T3 cells in cooperation with ras (Nagakubo et al., 1997). DJ-1 also positively regulates AR-activated transcription by binding PIASx alpha and making it unavailable for the AR:PIASx alpha complex which functions to inhibit AR activation (Takahasi et al., 2001). Non-selenium glutathione peroxidase gene was initially identified as a KGF-regulated gene (Munz et al., 1997) and it is highly expressed in the hyperproliferative epithelium at the wound edge.

[2] = target: mutant LNCaP AR (Homo sapiens, UniProt P10275, T878A); conditions: LNCaP cells, increasing concentrations of R1881 (10^−12 to 10^−6 M)
[3] = target: endogenous AR (Homo sapiens, UniProt P10275)
Chain of endogenous AR (P10275 whole entry): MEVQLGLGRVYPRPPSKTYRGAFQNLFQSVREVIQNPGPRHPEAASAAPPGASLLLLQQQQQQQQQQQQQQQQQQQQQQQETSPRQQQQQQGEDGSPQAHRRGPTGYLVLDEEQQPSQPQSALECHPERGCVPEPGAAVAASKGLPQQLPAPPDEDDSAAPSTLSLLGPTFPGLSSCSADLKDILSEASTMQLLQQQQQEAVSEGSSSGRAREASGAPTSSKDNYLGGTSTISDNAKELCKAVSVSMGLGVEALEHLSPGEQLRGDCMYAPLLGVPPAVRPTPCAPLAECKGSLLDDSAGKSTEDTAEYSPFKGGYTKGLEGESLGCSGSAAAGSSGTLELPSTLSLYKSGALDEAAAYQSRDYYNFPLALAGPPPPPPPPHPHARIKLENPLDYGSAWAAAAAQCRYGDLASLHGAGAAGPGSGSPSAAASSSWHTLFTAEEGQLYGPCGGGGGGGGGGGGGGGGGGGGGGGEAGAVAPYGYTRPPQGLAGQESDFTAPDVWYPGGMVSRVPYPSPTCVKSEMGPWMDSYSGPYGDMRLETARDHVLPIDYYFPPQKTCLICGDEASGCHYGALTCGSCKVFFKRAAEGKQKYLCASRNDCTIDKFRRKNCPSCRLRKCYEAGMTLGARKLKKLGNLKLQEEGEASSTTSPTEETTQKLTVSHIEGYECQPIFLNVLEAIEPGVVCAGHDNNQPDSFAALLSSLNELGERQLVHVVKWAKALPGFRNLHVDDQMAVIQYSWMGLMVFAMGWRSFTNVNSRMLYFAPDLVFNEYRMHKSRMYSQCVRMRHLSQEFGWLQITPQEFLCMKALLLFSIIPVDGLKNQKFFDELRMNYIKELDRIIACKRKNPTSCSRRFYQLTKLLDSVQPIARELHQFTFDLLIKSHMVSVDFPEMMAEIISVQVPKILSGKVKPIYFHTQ

Chain of mutant LNCaP AR (P10275 whole entry T878A): as the sequence (P10275 whole entry) above, with T878A counted along it

| SMILES | Calreticulin expression [1] | expression of actin [1] | expression of annexin V [1] | expression of glutathione S-transferase [1] | expression of vimentin [1] | concentration at which near maximal CAT activity was observed [2] | ARR2PB-activated CAT gene expression on addition of androgen [3] | CAT gene expression on addition of androgen [3] |
| --- | --- | --- | --- | --- | --- | --- | --- | --- |
| C[C@]12CCC(=O)C[C@@H]1CC[C@@H]1[C@@H]2CC[C@]2(C)[C@@H](O)CC[C@@H]12 [DHT] | increased | down-regulated | down-regulated | down-regulated | down-regulated |  |  |  |
| C[C@]1(O)CC[C@H]2[C@@H]3CCC4=CC(=O)CCC4=C3C=C[C@@]21C [R1881] |  |  |  |  |  | 10^−8 M | did not increase these levels any further | did not increase CAT gene expression any further |

Source: patent publication US20050112706A1, “Diagnostic and prognostic methods for prostate cancers” (priority 2002, published 2005)
